“And” between values parts separate entries of the source, which are not always exact repeats. Identical values can stand only once.

This is an account of results in patent US20220378756A1, “ACTIVATING PYRUVATE KINASE R” (FORMA Therapeutics, Inc., priority 2019, published 2022).

Data set [1] addresses T1, wt-PKR in mature human erythrocytes (Homo sapiens, UniProt P30613).
T1 construct: host or cells: purified human RBCs from donors
The experiment in a line: Cell assay: PKR activation in purified human RBCs (Biovision Pyruvate Kinase Assay). Type of data set: cell-based. As to conditions: 3 hr treatment. The method, then: (§1) The activation of wt-PKR by Compound 1 in mature human erythrocytes ex vivo was evaluated in purified RBCs purchased from Research Blood Components. Cells treated with Compound 1 for 3 hr in glucose-containing media were washed, lysed, and assayed using a Biovision Pyruvate Kinase Assay (K709-100). The assay was repeated multiple times to account for donor-to-donor variability and the relatively narrow dynamic range.

The nature of data set [2]: Preclinical safety and in vitro panels.
The target of data set [3] is T2, PKR in mouse red blood cells (Mus musculus, UniProt P53657).
T2 construct: endogenous in cells; host or cells: mouse RBCs isolated fresh from whole blood
Nature of the data set: PKR activation in mouse red blood cells. Format: cell-based. Conditions: mouse RBCs. The method, then: as §1
Mouse RBCs were isolated fresh from whole blood using a Ficoll gradient and assayed with methods similar to those used in the human RBCs assays.

For data set [4], the system named is Berkeley SS mouse (human HgbS). The experiment in a line: Berkeley SS mouse model of SCD, 7 days in chow. Format: in vivo. Conditions: 1000 ppm in chow. An excerpt: Targeted gene deletions and a human transgene in the Berkeley SS mouse model result in mice that express human HgbS almost exclusively (Pászty C. Transgenic and gene knock-out mouse models of sickle cell anemia and the thalassemias. Curr Opin Hematol. 1997 March; 4(2):88-93) and mimic the genetic, hematologic, and histopathologic features of SCD in humans. These include irreversibly sickled RBCs, anemia, and multi-organ pathology.
The effects of Compound 1 on Hgb affinity for oxygen, percentage of sickled cells, and/or Hgb were evaluated in the Berkley SS mouse. Two studies were conducted where mice received 0 or 1000 ppm Compound 1 ad libitum in mouse chow for 7 days. Blood was drawn on Day 7 and analyzed under hypoxic conditions. Red cell parameters were measured by ADVIA.

The nature of data set [5]: Phase 1 SAD/MAD, healthy volunteers: pharmacokinetics. Format: in vivo, human. An excerpt: This is a first-in-human (FIH), Phase 1 study of Compound 1 that will characterize the safety, PK, and PD of Compound 1 after a single dose and after repeated dosing first in healthy adult volunteers and then in adolescents or adults with sickle cell disease. Initially, a dose range of Compound 1 in single ascending dose (SAD) escalation cohorts will be explored in healthy subjects. Enrollment of healthy subjects into 2-week multiple ascending dose (MAD) escalation cohorts will be initiated once the safety and PK from at least two SAD cohorts is available to inform the doses for the 2-week MAD portion of the study. The MAD cohorts will then run in parallel to the single dose cohorts. A single dose cohort is planned to understand food effects (FE) on the PK of Compound 1. […] Multiple dose studies in SCD subjects will then be initiated upon completion of MAD studies in healthy volunteers. Compound 1 will be administered in 25 mg and 100 mg tablets delivered orally.
In this study, SAD/MAD cohorts are randomized (3 to 1) to receive Compound 1 or placebo (P). Compound 1 was evaluated first in 4 healthy SAD cohorts and 4 healthy MAD (14-day dosing period) cohorts. Based on the safety, and PK/PD profile from HS, Compound 1 is then evaluated in 1 SCD SAD cohort and 2 SCD MAD cohorts. Specifically, based on the safety and pharmacokinetic/pharmacodynamics (PK/PD) profile in healthy volunteer studies, Compound 1 is evaluated in patients (pts) with SCD, first in a single dose (SD or SAD) cohort and then in multiple-dose (MD or MAD) cohorts (14-day and 12-week). Safety assessments include AEs, vital signs, ECGs and laboratory parameters. PK/PD blood sampling was performed on Day 1 (SAD/MAD) and Day 14 (MAD) and up to 72 h after the last dose and at the end-of-study visit. […]
Four healthy SAD cohorts were evaluated at doses of 200, 400, 700, and 1000 mg, and four healthy MAD cohorts received 200 to 600 mg total daily doses for 14 days at QD or BID dosing (100 mg BID, 200 mg BID, 300 mg BID, and 400 mg QD). […]

Data set [6] concerns ATP and 2,3-DPG levels in blood cells. The experiment in a line: 28-day daily dosing in non-human primates. Type of data set: in vivo. The method, then: 2,3-DPG levels in blood cells from non-human primates receiving daily doses of Compound 1 at 100, 350 and 550 mg/kg for 28 days were measured. Dose dependent decreases in 2,3-DPG levels were observed, with up to a 40% decrease from pretreatment levels, as illustrated in FIG. 22.

T2 sequence (P53657 whole entry): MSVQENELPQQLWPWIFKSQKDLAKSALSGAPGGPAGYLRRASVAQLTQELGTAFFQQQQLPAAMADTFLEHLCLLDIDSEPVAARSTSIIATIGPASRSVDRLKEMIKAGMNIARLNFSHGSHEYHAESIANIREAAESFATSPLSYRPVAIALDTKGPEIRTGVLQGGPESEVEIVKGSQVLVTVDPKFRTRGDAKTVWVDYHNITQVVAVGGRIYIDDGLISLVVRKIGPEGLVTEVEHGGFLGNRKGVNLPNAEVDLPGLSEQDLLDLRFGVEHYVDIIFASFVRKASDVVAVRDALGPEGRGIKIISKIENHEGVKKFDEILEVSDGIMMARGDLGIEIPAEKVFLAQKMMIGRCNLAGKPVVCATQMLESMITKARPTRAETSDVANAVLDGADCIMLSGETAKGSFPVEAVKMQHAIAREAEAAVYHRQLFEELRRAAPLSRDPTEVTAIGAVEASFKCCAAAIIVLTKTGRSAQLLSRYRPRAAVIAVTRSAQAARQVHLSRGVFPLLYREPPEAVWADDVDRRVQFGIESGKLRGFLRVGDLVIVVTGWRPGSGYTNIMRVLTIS
T1 sequence (P30613 whole entry): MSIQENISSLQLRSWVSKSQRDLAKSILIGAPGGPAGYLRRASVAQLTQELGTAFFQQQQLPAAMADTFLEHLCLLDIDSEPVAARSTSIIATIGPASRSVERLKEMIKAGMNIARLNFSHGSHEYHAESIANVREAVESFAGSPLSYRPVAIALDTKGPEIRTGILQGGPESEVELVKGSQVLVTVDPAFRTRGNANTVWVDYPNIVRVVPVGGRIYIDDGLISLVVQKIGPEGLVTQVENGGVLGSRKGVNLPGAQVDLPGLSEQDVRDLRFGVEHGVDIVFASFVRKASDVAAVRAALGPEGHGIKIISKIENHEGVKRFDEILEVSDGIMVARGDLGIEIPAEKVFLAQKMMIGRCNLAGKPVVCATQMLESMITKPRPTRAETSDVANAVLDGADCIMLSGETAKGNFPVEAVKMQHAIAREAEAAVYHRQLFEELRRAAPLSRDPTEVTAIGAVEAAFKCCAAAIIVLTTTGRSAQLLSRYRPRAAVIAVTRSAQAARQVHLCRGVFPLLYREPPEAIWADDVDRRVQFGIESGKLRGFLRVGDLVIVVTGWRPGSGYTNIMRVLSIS

`O=C([C@H](CO)c1ccccc1)N1CC2=C(C1)CN(S(=O)(=O)c1cnc3c(c1)OCCO3)C2` (single isomer, unassigned) [Compound 1]: the “Max-Min (%)” value is <125% and <150% and <100% and <50% in data set [1] (individual replicates 1-4); <50% and <100% in data set [3] (individual replicates 1-2). Moreover, in data set [1] (mean of replicates), the “Max-Min (%), mean maximum activation increase” value was under 100%. Also, in data set [2], the “preclinical evidence of arrhythmia risk, mutagenicity, nonspecific binding” value is “has not demonstrated any preclinical evidence of arrhythmia risk, mutagenicity, or nonspecific binding activity”. In data set [3] (mean), the “Max-Min (%), mean” value is given as under 100%. Besides, in data set [4], the Hgb increase entry is reported as “≈ 1 g/dL”. Also, in data set [5] (food effect cohort, 200 mg), the “exposure under fed/fasted conditions” value is reported as “similar”. Besides, in data set [5] (healthy subjects, 14 days of dosing), the “observed clearance on day 1 and day 14” value is on record as “unchanged”. In data set [5] (healthy volunteers, single dose 400 mg, FIG. 43), the “time of pharmacokinetic maximum” value fell in the range of 1 to 2 h. In addition, in data set [6] (550 mg/kg daily for 28 days (highest dose)), the “increase in ATP levels compared to pre-treatment” value was determined as 90%. Besides, the “decrease in 2,3-DPG from pretreatment levels” value in data set [6] (daily doses 100, 350 and 550 mg/kg for 28 days) is recorded as at most 40%.
